Assay results taken from patent publication EP2873670A1, “Bis azainositol zirconium complexes for X-ray imaging” (Bayer Pharma Aktiengesellschaft, priority 2013, dated 2015).

Test: Stability of bis azainositol Zirconium complexes under heat sterilization (HPLC with ICP-MS detection, ICP-OES)
Format: physicochemical
Settings: absolute stability; aqueous, buffered solution at pH 7.4, 5 mmol/L of the compound, heated to 121 °C for 45 minutes in a steam autoclave
Protocol: Stability of bis azainositol Zirconium complexes
The stability of bis azainositol Zirconium complexes was determined in aqueous, buffered solution at pH 7.4. The solution containing 5 mmol/L of the compound in a tightly sealed vessel was heated to 121 °C for 45 minutes in a steam autoclave. The Zirconium concentration of the solution was determined by ICP-OES before and after heat treatment. The integrity of the compound was determined by HPLC analysis before and after heat treatment. Absolute stability was calculated as the ratio of the peak area of the compound after and before the heat treatment multiplied with the ratio of the metal concentration of the solution after and before heat treatment.
• Column 1: Reversed phase C18. • Column 2: ZIC®-HILIC. • Solvent A1: 0,5 mM tetrabutylammonium phosphate pH 6 • Solvent A2: 0.1 % formic acid in water • Solvent B1: methanol • Solvent B2: acetonitrile
The use of columns, solvents, flow rate and gradients is detailed in the table below. Detector: element specific detection by ICP-MS, running at m/z 90, the most abundant isotope of Zirconium.

Bis[µ3-3,3',3"-({[1R-(1α,2α,3α,4α,5α,6α)]-2,4,6-trihydroxylato-1κ^2O^2O^6, 2κ^2O^2O^4,3κ^2O^4O^6-cyclohexane-1,3,5-triyl}tris{methylimino-1κN^1,2κN^3,3κN^5})tripropanoato-1κO,2κO',3κO"]trizirconium(IV) [Example 3]
Stability: 100%

Hydroxido-3κO-[µ3-3,3',3"-({[1R-(1α,2α,3α,4α,5α,6α)]-2,4,6-trihydroxylato-1κ^2O^2O^6, 2κO^2O^4,3κ^2O^4O^6-cyclohexane-1,3,5-triyl]tris{methylimino-1κN^1,2κN^3,3κN^5}) tri-propanoato-1κO,2κO',3κO"][µ3-3,3'-({[1R-(1α,2α,3α,4α,5α,6α)]-2,4,6-trihydroxylato-1κ^2O^2O^6,2κ^2O^2O^4,3κ^2O^4O^6-5-[methylamino-3κN^5]cyclohexane-1,3-diyl}bis{methyl-imino-1κN^1,2κN^3})dipropanonato-1κO,2κO']trizirconium(IV) [Example 4]
Stability: 100%
